Reference: US7425640B2, “Substituted 5-carboxyamide pyrazoles and [1,2,4]triazoles as antiviral agents” (priority 2004, dated 2008)
Read-outs that look alike come from different tables or passages of the source.

Target: HCV RNA-dependent RNA polymerase NS5B (Δ21) (Hepatitis C virus genotype 1b, UniProt P26663)
Assay: Assay for HCV RNA-dependent RNA polymerase activity (SPA, [3H]-GTP incorporation)
Format: biochemical
Details: 50 nM NS5B (Δ21)
Procedure: Inhibitory activity of the present compounds against HCV RNA-dependent RNA polymerase was assayed according to the methods disclosed in United States Patent Application US2004/038993, content of which is incorporated herein by reference; and those described in Ferrari, E.; Wright-Minogue, J.; Fang, J. W. S.; Baroudy, B. M.; Lau, J. Y. N.; Hong, Z. J. Virol. 1999, 73, 1649.
Briefly, 50 μl reactions containing 20 mM HEPES (pH 7.3), 7.5 mM DTT, 20 units/ml RNasIN, 0.5 μg/ml biotinylated oligoG12, 5 μg/ml polyC, 5 μM GTP, 20 μCi/ml [^3H]-GTP, 10 mM MgCl2, 60 mM NaCl, 100 μg/ml BSA, and 50 nM NS5B (Δ21) were incubated at room temperature for three hours in 96-well plates with or without test compounds. Assay was terminated by the addition of 50 μl 10 mg/ml streptavidin-coated SPA beads supplemented with 100 mM EDTA, and the incorporation of labeled GTP determined by a TopCount Scintillation Counter. IC50 values were calculated from single experiments using 11 serial 2-fold dilutions (0.05-50 μM), and data were considered reliable only when the IC50 value of a positive internal control was within standard deviation range.

[1] = Δ21 Activity (IC50 μM), class symbols
[2] = Δ21 Activity (IC50 μM), numeric values
[3] = read-out: Δ21 Activity (IC50 μM), class symbols

Sequence of HCV RNA-dependent RNA polymerase NS5B (Δ21) (P26663 2420-2989, stated change not applied): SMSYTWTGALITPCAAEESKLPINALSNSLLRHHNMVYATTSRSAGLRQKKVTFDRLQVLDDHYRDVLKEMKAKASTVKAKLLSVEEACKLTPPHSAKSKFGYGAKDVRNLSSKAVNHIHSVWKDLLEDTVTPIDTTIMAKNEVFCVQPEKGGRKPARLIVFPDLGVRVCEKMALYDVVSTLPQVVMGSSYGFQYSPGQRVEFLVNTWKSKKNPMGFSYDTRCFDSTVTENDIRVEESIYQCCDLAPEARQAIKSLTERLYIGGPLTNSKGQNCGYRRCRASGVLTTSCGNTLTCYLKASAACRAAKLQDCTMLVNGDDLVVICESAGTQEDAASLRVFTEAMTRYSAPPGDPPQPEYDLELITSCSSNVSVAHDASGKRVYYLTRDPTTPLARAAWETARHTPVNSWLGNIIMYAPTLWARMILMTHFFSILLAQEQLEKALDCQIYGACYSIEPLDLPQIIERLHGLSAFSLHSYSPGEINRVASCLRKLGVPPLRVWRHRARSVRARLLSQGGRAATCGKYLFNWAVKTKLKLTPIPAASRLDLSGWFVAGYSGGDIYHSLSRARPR

| Structure (SMILES) | IC50 [1] [µM] | IC50 [3] [µM] | further results |
| --- | --- | --- | --- |
| O=C(Cn1nc(C(=O)O)cc1C(=O)Nc1ccccc1OCc1ccccc1)N[C@H]1CCCC[C@@H]1OCc1ccccc1 [Compound 39] | 0.05 to 0.1 |  |  |
| Cc1ccc(OCC2CCCC2)c(NC(=O)c2cc(C(=O)O)nn2CC(=O)N[C@H]2CCCC[C@@H]2OCc2ccccc2)c1 [drawing 241] |  |  | IC50 [2]: 0.023 µM |
| CCOC(=O)c1cc(C(=O)Nc2cc(C)ccc2OCn2nc(C)cc2C)n(CC(=O)N[C@H]2CCCC[C@@H]2OCc2ccccc2)n1 [Compound 202] | > 1 |  |  |
| N#CNC(=O)c1cc(C(=O)N[C@H]2CCCC[C@@H]2OCc2ccccc2)n(CC(=O)N[C@H]2CCCC[C@@H]2OCc2ccccc2)n1 [drawing 254] |  |  | IC50 [2]: 0.042 µM |
| O=C(Cn1nc(C(=O)c2ccccc2)cc1C(=O)N[C@H]1CCCC[C@@H]1OCc1ccccc1)N[C@H]1CCCC[C@@H]1OCc1ccccc1 [Compound 88] |  | 0.1 to 1 |  |
| O=C(Cn1nc(NS(=O)(=O)c2cccc3ccccc23)cc1C(=O)N[C@H]1CCCC[C@@H]1OCc1ccccc1)N[C@H]1CCCC[C@@H]1OCc1ccccc1 [Compound 55] |  | 0.1 to 1 |  |
| CCOC(=O)c1cc(C(=O)N[C@H]2CCCC[C@@H]2OCc2ccccc2)n(CC(=O)NC2CCCC[C@@H]2NCc2ccccc2)n1 (stereo partly drawn) [Compound 199] | > 1 |  |  |
| O=C(Cn1nc(C(=O)O)cc1C(=O)Nc1cc(Br)ccc1OCC1CCCCC1)N[C@H]1CCCC[C@@H]1OCc1ccccc1 [Compound 12] | < 0.05 |  |  |
| O=C(Cn1nc(C(=O)O)cc1C(=O)N[C@H]1CCCC[C@@H]1OCc1ccccc1)Nc1ccc2c(c1)OCO2 [Compound 185] | > 1 |  |  |
| Nc1c(C(=O)O)nn(CC(=O)N[C@H]2CCCC[C@@H]2OCc2ccccc2)c1C(=O)N[C@H]1CCCC[C@@H]1OCc1ccccc1 [Compound 147] |  | 0.1 to 1 |  |
| CCOC(=O)c1cc(C(=O)N(C)[C@H]2CCCC[C@@H]2OCc2ccccc2)n(CC(=O)N(C)C2CCCC[C@@H]2OCc2ccccc2)n1 (stereo partly drawn) [Compound 210] | > 1 |  |  |
| O=C(Cn1nc(C(=O)NCc2cccs2)cc1C(=O)N[C@H]1CCCC[C@@H]1OCc1ccccc1)N[C@H]1CCCC[C@@H]1OCc1ccccc1 [Compound 92] |  | 0.1 to 1 |  |
| COC(=O)CCCCCNC(=O)c1cc(C(=O)N[C@H]2CCCC[C@@H]2OCc2ccccc2)n(CC(=O)N[C@H]2CCCC[C@@H]2OCc2ccccc2)n1 [Compound 149] |  | 0.1 to 1 |  |
| CC(C)CNC(=O)c1cc(C(=O)N[C@H]2CCCC[C@@H]2OCc2ccccc2)n(CC(=O)N[C@H]2CCCC[C@@H]2OCc2ccccc2)n1 [Compound 77] |  | 0.1 to 1 |  |
| CN(C(=O)Cn1nc(C(=O)O)cc1C(=O)N[C@H]1CCCC[C@@H]1OCc1ccccc1)[C@H]1CCCC[C@@H]1OCc1ccccc1 [Compound 123] |  | 0.1 to 1 |  |
| O=C(Cn1nc(C=NO)cc1C(=O)N[C@H]1CCCC[C@@H]1OCc1ccccc1)N[C@H]1CCCC[C@@H]1OCc1ccccc1 [Compound 143] |  | 0.1 to 1 |  |
| N#Cc1ccc(S(=O)(=O)Nc2cc(C(=O)N[C@H]3CCCC[C@@H]3OCc3ccccc3)n(CC(=O)N[C@H]3CCCC[C@@H]3OCc3ccccc3)n2)cc1 [Compound 42] | 0.05 to 0.1 |  |  |
| CC(=O)Nc1cc(C(=O)N[C@H]2CCCC[C@@H]2OCc2ccccc2)n(CC(=O)NC2CCCC[C@@H]2OCc2ccccc2)n1 (stereo partly drawn) [Compound 196] | > 1 |  |  |
| O=C(Cn1nc(NS(=O)(=O)c2ccc([N+](=O)[O-])cc2)cc1C(=O)N[C@H]1CCCC[C@@H]1OCc1ccccc1)N[C@H]1CCCC[C@@H]1OCc1ccccc1 [Compound 85] |  | 0.1 to 1 |  |
| O=C(Cn1nc(C(=O)Nc2nnn[nH]2)cc1C(=O)Nc1ccccc1OCc1ccccc1)N[C@H]1CCCC[C@@H]1OCc1ccccc1 [Compound 20] | 0.05 to 0.1 |  |  |
| CCCCNC(=O)Nc1cc(C(=O)N[C@H]2CCCC[C@@H]2OCc2ccccc2)n(CC(=O)N[C@H]2CCCC[C@@H]2OCc2ccccc2)n1 [Compound 124] |  | 0.1 to 1 |  |

| Structure (SMILES) | IC50 [1] [µM] | IC50 [3] [µM] | further results |
| --- | --- | --- | --- |
| O=C(Cn1nc(C(=O)Cc2ccccc2)cc1C(=O)N[C@H]1CCCC[C@@H]1OCc1ccccc1)N[C@H]1CCCC[C@@H]1OCc1ccccc1 [Compound 182] | > 1 |  |  |
| Cc1ccc(OCC2CCCCC2)c(NC(=O)c2cc(C(=O)O)nn2CC(=O)N[C@H]2CCCC[C@@H]2OCc2ccccc2)c1 [drawing 244] |  |  | IC50 [2]: 0.033 µM |
| O=C(Cn1nc(NS(=O)(=O)c2ccc(F)cc2Cl)cc1C(=O)N[C@H]1CCCC[C@@H]1OCc1ccccc1)N[C@H]1CCCC[C@@H]1OCc1ccccc1 [Compound 71] |  | 0.1 to 1 |  |
| CCOC(=O)c1nc(C(=O)N[C@H]2CCCC[C@@H]2OCc2ccccc2)n(CC(=O)N[C@H]2CCCC[C@@H]2OCc2ccccc2)n1 [Compound 141] |  | 0.1 to 1 |  |
| CN(C(=O)c1cc(C(=O)O)nn1CC(=O)N[C@H]1CCCC[C@@H]1OCc1ccccc1)[C@H]1CCCC[C@@H]1OCc1ccccc1 [Compound 133] |  | 0.1 to 1 |  |
| CN(C(=O)Cn1nc(C(=O)O)cc1C(=O)N(C)[C@H]1CCCC[C@@H]1OCc1ccccc1)[C@H]1CCCC[C@@H]1OCc1ccccc1 [Compound 158] |  | 0.1 to 1 |  |
| CCOC(=O)c1cc(C(=O)N(C)[C@H]2CCCC[C@@H]2OCc2ccccc2)n(CC(=O)N[C@H]2CCCC[C@@H]2OCc2ccccc2)n1 [Compound 181] | > 1 |  |  |
| O=C(Cn1nc(C(=O)O)cc1C(=O)N[C@H]1CCCC[C@@H]1OCc1ccccc1)Nc1ncccc1Oc1ccccc1 [Compound 160] |  | 0.1 to 1 |  |
| CNC(=O)Nc1cc(C(=O)N[C@H]2CCCC[C@@H]2OCc2ccccc2)n(CC(=O)N[C@H]2CCCC[C@@H]2OCc2ccccc2)n1 [Compound 135] |  | 0.1 to 1 |  |
| Nc1cc(C(=O)N[C@H]2CCCC[C@@H]2OCc2ccccc2)n(CC(=O)NC2CCCC[C@@H]2OCc2ccccc2)n1 (stereo partly drawn) [Compound 205] | > 1 |  |  |
| O=C(Cn1nc(C(=O)O)cc1C(=O)Nc1ccc(F)cc1OCC1CCCCC1)N[C@H]1CCCC[C@@H]1OCc1ccccc1 [Compound 30] | 0.05 to 0.1 |  |  |
| CC(C)C(=O)c1cc(C(=O)N[C@H]2CCCC[C@@H]2OCc2ccccc2)n(CC(=O)N[C@H]2CCCC[C@@H]2OCc2ccccc2)n1 [Compound 63] |  | 0.1 to 1 |  |
| O=C(Cn1nc(C(=O)NC2CCCCC2)cc1C(=O)N[C@H]1CCCC[C@@H]1OCc1ccccc1)N[C@H]1CCCC[C@@H]1OCc1ccccc1 [Compound 83] |  | 0.1 to 1 |  |
| CS(=O)(=O)NC(=O)c1cc(C(=O)N[C@H]2CCCC[C@@H]2OCc2ccccc2)n(CC(=O)N[C@H]2CCCC[C@@H]2OCc2ccccc2)n1 [Compound 155] |  | 0.1 to 1 |  |
| Cc1ccc(OCC2CCCC2)c(NC(=O)c2cc(C(=O)O)nn2CC(=O)N[C@H]2CCCC[C@@H]2OCc2ccccc2)c1 [Compound 2] | < 0.05 |  |  |
| Cc1ccc(OCc2ccccc2)c(NC(=O)c2cc(-c3nnn[nH]3)nn2CC(=O)N[C@H]2CCCC[C@@H]2OCc2ccccc2)c1 [Compound 1] | < 0.05 |  |  |
| CCOCCN(CCOCC)C(=O)c1cc(C(=O)N[C@H]2CCCC[C@@H]2OCc2ccccc2)n(CC(=O)N[C@H]2CCCC[C@@H]2OCc2ccccc2)n1 [Compound 177] | > 1 |  |  |
| O=C(Cn1nc(C(=O)O)nc1C(=O)N[C@H]1CCCC[C@@H]1OCc1ccccc1)N[C@H]1CCCC[C@@H]1OCc1ccccc1 [Compound 66] |  | 0.1 to 1 |  |
| O=C(Cn1nc(C(=O)O)cc1C(=O)N[C@H]1CCCC[C@@H]1NCc1ccccc1)N[C@H]1CCCC[C@@H]1OCc1ccccc1 [Compound 120] |  | 0.1 to 1 |  |
| O=C(Cn1nc(C(=O)NOCc2ccccc2)cc1C(=O)N[C@H]1CCCC[C@@H]1OCc1ccccc1)N[C@H]1CCCC[C@@H]1OCc1ccccc1 [Compound 53] |  | 0.1 to 1 |  |
| CC(C)(NC(=O)c1cc(C(=O)N[C@H]2CCCC[C@@H]2OCc2ccccc2)n(CC(=O)N[C@H]2CCCC[C@@H]2OCc2ccccc2)n1)c1ccccc1 [Compound 52] |  | 0.1 to 1 |  |
